Measurements as given in article PMC5390258, “CMD-05, a novel promising clinical anti-diabetic drug candidate, in vivo and vitro studies” (Scientific Reports, 2017).

Key:
[1] = Body weight of model rats; assay type: in vivo, rat; settings: 30 days treatment
Method: (§1) To establish model of T2DM, male rats (80–100 g, 9-week-old)[49] were fed high fat diet (HFD) (20% sugar, 10% lard, 10% egg yolk and 60% basal feed) after a week of normal diet. After 4 weeks, rats were injected once with low-dose streptozotocin (Solarbio, China) (STZ, 30 mg/kg i.p) to induce partial insulin deficiency, and then continuously fed HFD for 4 weeks after injection of STZ. Then the model rats were oral administrated drugs for 30 days. The body weights were recorded once a week.

pancreatic islets = test: Morphologic observation on islet of model rats (HE, immunofluorescence, TEM); assay type: in vivo, rat
Method: HE staining on paraffin section was performed as described in reports. In brief, paraffin section were rinsed with PBS, fixed with 4% paraformaldehyde (PFA) for 30 min and then washed by PBS. The pancreas tissue were stained with Hematoxylin-Eosin, afterwards, they were dehydrated in alcohols. Morphological changes of the pancreas tissue were observed under an optical microscope (Olympus, Japan) after mounted by neutral resins.
Pancreas sections (8 μm) were cut in a cryostat and collected on superfrost microscope slides. The slides were stored at −20 °C till analysis. Immunofluorescent staining was used for detection of insulin (β cells) (1:100, Anti-Insulin antibody, Abcam), glucagon (α cells) (1:200, Anti-glucagon, Abcam). Briefly, the slides were blocked in 5% normal goat serum for 1 h in a humidified chamber. Slides were exposed to primary antibodies at a dilution of […] in antibody diluting solution at 4 °C overnight, washed in PBS, and exposed to appropriate secondary antibodies linked to the fluorescent probes (Goat Anti-Guinea pig IgG/FITC and Alexa Fluor 594-conjugated Goat Anti-Rabbit IgG) (Bioss and Proteintech, China) in antibody diluting solution for 1 h and DAPI (Beyotime, China) for 5 min in the dark. After washed by PBS, slides were mounted with a glycerol mounting medium. Images were collected using a fluorescent microscope (Nikon, Japan).
For transmission electron microscopy, about 1 mm^3 tissue specimens were obtained from the same pancreas region of the control and experimental groups of rats, and fixed overnight in 2% glutaraldehyde (pH7.3) in 0.1 M phosphate buffer saline at 4 °C. Images of pancreatic islets were captured from random tissue sections using a transmission electron microscope.

INS-1 cells = test: Proliferation of INS-1 cells (CCK-8); assay type: cell-based, rat; settings: 24 h, CCK-8, vs DMSO
Method: The rat insulinoma cell line INS-1 (832/13) was obtained from the Department of endocrinology at 1st affiliated hospital of Chongqing medical university. Cells were cultured in RPMI 1640 (Gibco, USA) (11 mmol/l glucose, 100 units/ml penicillin, […] streptomycin, 10 mmol/l HEPES pH 7.4) supplemented with 10% FBS (Gibco, USA), 2 mmol/l L-glutamine, 1 mmol/l pyruvate, and 50 μmol/l β-mercaptoethanol. […] 10 μl of CCK-8 was then added and incubated at 37 °C and 5% CO2 for 1.5 h and […] (OD) was read at 460 nm with microplate reader. The OD value represents the proliferation activity.

HbA1c = HbA1c level in blood of model rats; assay type: in vivo, rat; settings: 3 mg/kg, 30 days
Method: as §1
(§2) Oral glucose load, fasted and random blood samples were collected from rats on the 28th days, the 29th days and the last of the treatment of drugs, respectively. Plasma levels of insulin and GLP-1 were measured by ELISA kits (YuanYe, China) according to the manufacturer’s recommendation. The levels of HbA1c, Triglycerides (TG), total cholesterol (TC) and low density lipoprotein cholesterol (LDL-C) in blood samples were measured by commercial assay kits (JianCheng, Nanjing, China) according to the manufacturer’s directions.

insulin = test: Plasma insulin levels in model rats (ELISA); assay type: in vivo, rat; settings: 3 mg/kg, fasted and glucose load plasma
Method: as §1, §2

NCI-H716 cells = test: GLP-1 secretion in NCI-H716 cells; assay type: cell-based, human; settings: 10, 30, 100 μM, 2 h, compared with solvent group
Method: Human enteroendocrine NCI-H716 cells were maintained in suspension culture as described by the American Type Culture Collection guideline (ATCC). Two days before the experiments, cells were seeded into 12-well culture plates coated with Matrigel at 1 × 10^6 cells per well. Cells were incubated in RPMI 1640 containing 10% FBS at 37 °C for 48 h. […] After incubated for 2 h, GLP-1 concentrations from the supernatants were measured by ELISA kits (YuanYe, China).

TG, LDL-C = test: TG and LDL-C plasma levels in model rats; assay type: in vivo, rat; settings: 3 mg/kg
Method: as §1, §2

[2] = system: model rats (HFD/low-dose STZ, T2DM); test: Oral glucose tolerance test (OGTT) in HFD/STZ T2DM model rats; assay type: in vivo, rat; settings: 3 mg/kg oral, model rats
Method: as §1
On the 1st day, 19th days and 29th days of treatment, oral glucose tolerance tests for model rats were carried out. […] The blood glucose levels were tested using Johnson one touch Ultra Test Strips on Johnson Performa blood glucose meter.

N#C[C@@H]1CCCN1C(=O)CNC12CC3CC(CC(O)(C3)C1)C2 [vildagliptin, reference compound]
body weights vs model group [1]: no significant difference | distribution of β cells (insulin/glucagon double staining) (pancreatic islets; 30 days treatment): obviously improved | mass of α-cells (insulin/glucagon double staining) (pancreatic islets; 30 days treatment): mildly reduced | morphology of pancreatic islets (HE staining) (pancreatic islets; 30 days treatment): prevent islet from damage | secretory granules in β cells (transmission electron microscopy) (pancreatic islets; compared with the model): obviously increased | cells viabilities (proliferation) of INS-1 cells (INS-1 cells): increased | reduction of the level of HbA1c (HbA1c): 2.0% | insulin levels in plasma (insulin): significantly increased | GLP-1 levels (secretion) (NCI-H716 cells): increased slightly without significance | reduction of LDL-C level (TG, LDL-C): 15.97% | reduction of TG level (TG, LDL-C): 38.79% | percentage reduction of blood glucose levels in OGTT ([2]; 1st day): 8.9% | percentage reduction of blood glucose levels in OGTT ([2]; 19th day): 10.1% | percentage reduction of blood glucose levels in OGTT ([2]; 29th day): 17.8%
